Experimental data reported in patent US20070249637A1, “Inhibitors Of Hepatitis C Virus Protease, And Compositions And Treatments Using The Same” (priority 2004, published 2007).

Tests used:
[1] = in vitro; format: cell-based; settings: human; 50% reduction of firefly luciferase expression, 3 days incubation; read-out: Replicon CC50
Description: (§1) Cell-based antiviral activity was evaluated in the previously described HCV dual reporter subgenomic replicon system (the '075 application). With this system, the effects of a compound on both HCV replication and cell viability can be simultaneously determined by measuring the intracellular levels of two separate reporter proteins. The dicistronic selectable replicon contains the Renilla luciferase gene such that Renilla luciferase activity within stably-transfected cells serves as a marker of HCV replication. The firefly luciferase gene is stably integrated into and expressed by the Huh-7 host cells. Since firefly luciferase activity is dependent upon cellular transcription and translation, firefly luciferase activity serves as an indicator of cell viability.
(§2) The dual reporter selectable replicon cell line (B6b) was maintained in DMEM supplemented with 10% FBS, L-glutamine, non-essential amino acids, penicillin, streptomycin, and selection agents (200 ug/ml G418 and 6 ug/ml blastocidin). On the first day of the experiment, cells were trypsinized, washed, and diluted in medium lacking the selection agents. Cells were transferred to 96-well, black-walled, clear bottom plates at a density of 2×10^4 cells in 150 ul of medium per well. Cells were allowed to settle for 60 to 90 minutes while compounds were being prepared. Each compound was initially diluted to a 4× working stock (2.56% DMSO in tissue culture medium) that was then serially diluted nine times in half log increments in medium with 2.56% DMSO. Fifty microliters of each dilution were then added in triplicate to the plated cells in order to obtain final IX compound concentrations with 0.64% DMSO. Typical testing concentrations ranged from 320 uM to 10 nM. Control wells containing 0.64% DMSO without compound were also included on each plate.
(§3) After 3 days of incubation under humidity at 37° C. with 5% CO2, plates were microscopically examined for compound precipitation and cell death. Tissue culture medium was then aspirated and cells were lysed with 20 ul of 1× Passive Lysis Buffer (Promega, Madison, Wis.). Reporter activity was measured using a MicroBeta Jet 1450 (Perkin Elmer, Boston, Mass.) following sequential 50 ul additions of firefly and Renilla luciferase substrates as described in the manufacturers protocol (Promega). Luciferase activities were expressed as a percentage of the signals observed in the compound-free control wells. The amount of compound required to reduce Renilla luciferase expression by 50% is defined as the 50% effective concentration, or EC50. The amount of compound that reduces firefly luciferase expression by 50% is defined as the 50% cytotoxic concentration, or CC50. A therapeutic index (TI) is calculated by dividing the CC50 by the EC50.

[2] = system: HCV dual reporter subgenomic replicon (B6b cell line); test: HCV dual reporter subgenomic replicon assay, Renilla luciferase (antiviral activity); format: cell-based; settings: Hepatitis C virus, 72 h; 50% reduction of Renilla luciferase expression, 3 days incubation
Description: The compounds described herein were tested for antiviral activity utilizing a dual-reporter replicon assay as described in U.S. patent application Ser. No. 10/818,075 (the '075 application), filed Apr. 5, 2004. The disclosure of the '075 application is incorporated herein.
as §1, §2, §3

[3] = biological target: T1, full-length NS3-NS4A enzyme (Hepatitis C virus genotype 1a, UniProt P27958); test: HCV protease assay (continuous FRET, full-length enzyme); format: biochemical; settings: 3 nM full-length NS3-NS4A, 3 uM depsipeptide FRET substrate S1; competitive inhibition fit
T1 construct: 3 nM full-length NS3-NS4A enzyme
Description: HCV protease activity and compound inhibition was monitored using a continuous, fluorescence resonance energy transfer (FRET) assay. Test compounds at various concentrations were added to assay buffer (50 mM MOPS pH 7.5, 50 mM NaCl, 20% glycerol, 0.025% Triton-X 100, 1 mM tris(2-carboxyethyl)phosphine) containing 3 uM depsipeptide FRET substrate S1 (Anaspec) (see Taliani et al. Analytical Biochemistry, 240, 60-67 (1996)) in a white, non-binding 96-well plate (Corning). The reaction was started by the addition of 3 nM full-length NS3-NS4A enzyme. The increase in fluorescence intensity following peptide cleavage was monitored using a Safire fluorescence plate reader (Tecan). The excitation and emission wavelengths were 340 nm and 500 nm, respectively. Inhibition constants (KI) were calculated by non-linear regression analysis using an equation derived for competitive inhibition.

T1 sequence (P27958 1027-1657): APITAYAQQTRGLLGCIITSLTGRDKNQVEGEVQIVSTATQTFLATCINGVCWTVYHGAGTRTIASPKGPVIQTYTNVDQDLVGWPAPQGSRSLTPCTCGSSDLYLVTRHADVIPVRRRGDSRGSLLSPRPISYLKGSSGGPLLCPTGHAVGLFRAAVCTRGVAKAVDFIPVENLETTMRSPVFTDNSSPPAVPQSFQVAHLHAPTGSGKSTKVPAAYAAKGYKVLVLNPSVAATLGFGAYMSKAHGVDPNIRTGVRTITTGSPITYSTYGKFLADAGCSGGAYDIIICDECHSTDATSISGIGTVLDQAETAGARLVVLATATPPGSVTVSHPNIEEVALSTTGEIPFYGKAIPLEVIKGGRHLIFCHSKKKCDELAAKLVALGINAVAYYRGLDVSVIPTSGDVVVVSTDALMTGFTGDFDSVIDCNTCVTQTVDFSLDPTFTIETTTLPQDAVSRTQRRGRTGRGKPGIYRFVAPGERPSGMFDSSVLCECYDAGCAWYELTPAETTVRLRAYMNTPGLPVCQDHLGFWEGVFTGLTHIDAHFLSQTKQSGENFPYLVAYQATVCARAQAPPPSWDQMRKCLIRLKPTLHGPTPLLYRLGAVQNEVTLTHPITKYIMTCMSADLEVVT
T1 sequence (P27958 1658-1711): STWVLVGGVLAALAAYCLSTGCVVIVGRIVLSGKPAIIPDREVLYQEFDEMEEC

| SMILES | CC50 at 3 days [1] | EC50 [2] | Ki [3] |
| --- | --- | --- | --- |
| O=C(N[C@H]1CCCCC/C=C\[C@@H]2C[C@@]2(C(=O)O)NC(=O)[C@@H]2C[C@@H](Oc3nc(-c4ccccn4)nc4ccsc34)CN2C1=O)OC1CCC1 [Example 43, (2R,6S,12Z,13aS,14aR,16aS)-6-{[(cyclobutyloxy)carbonyl]amino}-5,16-dioxo-2-[(2-pyridin-2-ylthieno[3,2-d]pyrimidin-4-yl)oxy]-1,2,3,6,7,8,9,10,11,13a,14,15,16,16a-tetradecahydrocyclopropa[e]pyrrolo[1,2-a][1,4]diazacyclopentadecine-14a(5H)-carboxylic acid] | > 320 µM | 0.19 µM | 0.02 µM |
| O=C(CC1CC1)N[C@H]1CCCCC/C=C\[C@@H]2C[C@@]2(C(=O)O)NC(=O)[C@@H]2C[C@@H](Oc3nc(-c4ccccn4)nc4ccsc34)CN2C1=O [Example 46, (2R,6S,12Z,13aS,14aR,16aS)-6-[(Cyclopropylacetyl)amino]-5,16-dioxo-2-[(2-pyridin-2-ylthieno[3,2-d]pyrimidin-4-yl)oxy]-1,2,3,6,7,8,9,10,11,13a,14,15,16,16a-tetradecahydrocyclopropa[e]pyrrolo[1,2-a][1,4]diazacyclopentadecine-14a(5H)-carboxylic acid] | > 320 µM | 0.092 µM | 0.015 µM |
| O=C(N[C@H]1CCCCC/C=C\[C@@H]2C[C@@]2(C(=O)O)NC(=O)[C@@H]2C[C@@H](Oc3nc(-c4ccccn4)nc4sccc34)CN2C1=O)OC1CCC1 [Example 28, (2R,6S,12Z,13aS,14aR,16aS)-6-{[(cyclobutyloxy)carbonyl]amino}-5,16-dioxo-2-[(2-pyridin-2-ylthieno[2,3-d]pyrimidin-4-yl)oxy]-1,2,3,6,7,8,9,10,11,13a,14,15,16,16a-tetradecahydrocyclopropa[e]pyrrolo[1,2-a][1,4]diazacyclopentadecine-14a(5H)-carboxylic acid] | 59 µM | 0.42 µM | 0.021 µM |
| CC(C)Nc1cccc(-c2nc(O[C@@H]3C[C@H]4C(=O)N[C@]5(C(=O)O)C[C@H]5/C=C\CCCCC[C@H](NC(=O)OC(C)(C)C)C(=O)N4C3)c3sccc3n2)n1 [Example 79, (2R,6S,12Z,13aS,14aR,16aS)-6-[(Tert-butoxycarbonyl)amino]-2-({2-[6-(isopropylamino)pyridin-2-yl]thieno[3,2-d]pyrimidin-4-yl}oxy)-5,16-dioxo-1,2,3,6,7,8,9,10,11,13a,14,15,16,16a-tetradecahydrocyclopropa[e]pyrrolo[1,2-a][1,4]diazacyclopentadecine-14a(5H)-carboxylic acid] | 212 µM | 0.18 µM | 0.0113 µM |
| O=C(CC1CC1)N[C@H]1CCCCC/C=C\[C@@H]2C[C@@]2(C(=O)O)NC(=O)[C@@H]2C[C@@H](Oc3cc(-c4ccccn4)nc4ccsc34)CN2C1=O [Example 16, (2R,6S,12Z,13aS,14aR,16aS)-6-[(Cyclopropylacetyl)amino]-5,16-dioxo-2-[(5-pyridin-2-ylthieno[3,2-b]pyridin-7-yl)oxy]-1,2,3,6,7,8,9,10,11,13a,14,15,16,16a-tetradecahydrocyclopropa[e]pyrrolo[1,2-a][1,4]diazacyclopentadecine-14a(5H)-carboxylic acid] | 251 µM | 0.14 µM | 0.011 µM |
| O=C(CC1CC1)N[C@H]1CCCCC/C=C\[C@@H]2C[C@@]2(C(=O)O)NC(=O)[C@@H]2C[C@@H](Oc3nc(-c4ccccn4)nc4sccc34)CN2C1=O [Example 31, (2R,6S,12Z,13aS,14aR,16aS)-6-[(Cyclopropylacetyl)amino]-5,16-dioxo-2-[(2-pyridin-2-ylthieno[2,3-d]pyrimidin-4-yl)oxy]-1,2,3,6,7,8,9,10,11,13a,14,15,16,16a-tetradecahydrocyclopropa[e]pyrrolo[1,2-a][1,4]diazacyclopentadecine-14a(5H)-carboxylic acid] | 168 µM | 0.25 µM | 0.039 µM |
| O=C(N[C@H]1CCCCC/C=C\[C@@H]2C[C@@]2(C(=O)O)NC(=O)[C@@H]2C[C@@H](Oc3nc(-c4ccccn4)nc4sccc34)CN2C1=O)OC1CCCC1 [Example 26, (2R,6S,12Z,13aS,14aR,16aS)-6-{[(Cyclopentyloxy)carbonyl]amino}-5,16-dioxo-2-[(2-pyridin-2-ylthieno[2,3-d]pyrimidin-4-yl)oxy]-1,2,3,6,7,8,9,10,11,13a,14,15,16,16a-tetradecahydrocyclopropa[e]pyrrolo[1,2-a][1,4]diazacyclopentadecine-14a(5H)-carboxylic acid] | 117 µM | 0.1 µM | 0.0085 µM |
| Cc1cc(-c2nc(O[C@@H]3C[C@H]4C(=O)N[C@]5(C(=O)O)C[C@H]5/C=C\CCCCC[C@H](NC(=O)CC5CC5)C(=O)N4C3)c3sccc3n2)n(C)n1 [Example 63, (2R,6S,12Z,13aS,14aR,16aS)-6-[(cyclopropylacetyl)amino]-2-{[2-(1,3-dimethyl-1H-pyrazol-5-yl)thieno[3,2-d]pyrimidin-4-yl]oxy}-5,16-dioxo-1,2,3,6,7,8,9,10,11,13a,14,15,16,16a-tetradecahydrocyclopropa[e]pyrrolo[1,2-a][1,4]diazacyclopentadecine-14a(5H)-carboxylic acid] | > 320 µM | 0.011 µM | 0.0081 µM |
| Cc1cc(-c2nc(O[C@@H]3C[C@H]4C(=O)N[C@]5(C(=O)O)C[C@H]5/C=C\CCCCC[C@H](NC(=O)OC5CCC5)C(=O)N4C3)c3sccc3n2)n(C)n1 [Example 60, (2R,6S,12Z,13aS,14aR,16aS)-6-{[(Cyclobutyloxy)carbonyl]amino}-2-{[2-(1,3-dimethyl-1H-pyrazol-5-yl)thieno[3,2-d]pyrimidin-4-yl]oxy}-5,16-dioxo-1,2,3,6,7,8,9,10,11,13a,14,15,16,16a-tetradecahydrocyclopropa[e]pyrrolo[1,2-a][1,4]diazacyclopentadecine-14a(5H)-carboxylic acid] | 222 µM | 0.7 µM | 0.0067 µM |
| O=C(N[C@H]1CCCCC/C=C\[C@@H]2C[C@@]2(C(=O)O)NC(=O)[C@@H]2C[C@@H](Oc3cc(-c4ccccn4)nc4ccsc34)CN2C1=O)OC1CCCC1 [Example 11, (2R,12Z,13aS,14aR,16aS)-6-{[(cyclopentyloxy)carbonyl]amino}-5,16-dioxo-2-[(5-pyridin-2-ylthieno[3,2-b]pyridin-7-yl)oxy]-1,2,3,6,7,8,9,10,11,13a,14,15,16,16a-tetradecahydrocyclopropa[e]pyrrolo[1,2-a][1,4]diazacyclopentadecine-14a(5H)-carboxylic acid] | 86 µM | 0.11 µM | 0.0066 µM |
| CC(C)(C)OC(=O)N[C@H]1CCCCC/C=C\[C@@H]2C[C@@]2(C(=O)O)NC(=O)[C@@H]2C[C@@H](Oc3nc(-c4ccccn4)nc4sccc34)CN2C1=O [Example 29, (2R,6S,12Z,13aS,14aR,16aS)-6-[(tert-butoxycarbonyl)amino]-5,16-dioxo-2-[(2-pyridin-2-ylthieno[2,3-d]pyrimidin-4-yl)oxy]-1,2,3,6,7,8,9,10,11,13a,14,15,16,16a-tetradecahydrocyclopropa[e]pyrrolo[1,2-a][1,4]diazacyclopentadecine-14a(5H)-carboxylic acid] | 13 µM | 0.42 µM | 0.042 µM |
